Measured values: patent publication US20250327133A1, “USE OF SRE-PTPRZ1 INHIBITOR IN PREPARATION OF DRUG FOR TREATING SQUAMOUS CELL CARCINOMA” (WEST CHINA HOSPITAL, SICHUAN UNIVERSITY, priority 2022, published 2025)
pIC50: −log10 of the molar value.

Columns and labels:
[1] = system: human Lung-LUSC cell lines; assay: CCK8 cell proliferation, MY33-3, Lung-LUSC cell lines; format: cell-based; details: 7 human Lung LUSC cell lines; 72 hours
Method: (§1) The CCK8 method was used to detect the effect of PTPRZ1 inhibitor MY33-3 on cell proliferation. 7 strains of human Lung-LUSC cells, one strain of human lung adenocarcinoma cell, one strain of human normal lung epithelial cell BEAS-2B, and one strain of PTPRZ1 high expressing cell line U251 (high expression of PTPRZ1 gene in glioma cells) were used in this experiment for detection. Each cell line was inoculated into a 96-well plate at a density of 6000 cells/well, cultured for 24 hours, and then 100 μL of MY33-3 working solution was added to the test wells at final concentrations of 0 μM, 1 μM, 2 μM, 4 μM, 8 μM, 16 μM, 32 μM, and 64 μM, while 100 μL of medium was added to the blank control well. After 72 hours of drug treatment, 20 μL of CCK8 was added in proportion and incubated for 1 hour. The absorbance value was measured at 450 nm, and the IC50 values of MY33-3 against different cells were plotted.

[2] = system: human Lung LUAD cell line; assay: CCK8 cell proliferation, MY33-3, lung adenocarcinoma cell line; format: cell-based; details: one human Lung LUAD cell line; 72 hours
Method: as §1

[3] = system: human normal lung epithelial cell line BEAS-2B; assay: CCK8 cell proliferation, MY33-3, BEAS-2B; format: cell-based; details: 72 hours
Method: as §1

[4] = system: PTPRZ1 glioma cell line U251; assay: CCK8 cell proliferation, MY33-3, U251; format: cell-based; details: Homo sapiens, U-251, 72 hours
Method: as §1

[5] = system: human Lung-LUSC (H520) cells; assay: Subcutaneous tumor formation in nude mice (H520); format: in vivo, BALB/c-nu mice; details: for tumor size compared with the model group / tumor volume compared with the model group: after 21 days of administration
Method: At the animal level, the method of subcutaneous tumor formation in nude mice was used to verify the therapeutic effect of the inhibitor MY33-3 on the tumor formation of human Lung-LUSC (H520) cells. Firstly, 30 of 4W BALB/c-nu mice were purchased from GemPharmatech and acclimated for 3 days. Then, 150 μL of pre-prepared H520 cells was injected subcutaneously into the right forelimb of nude mice at 8×10^6 cells/mouse. After 7 days, the tumor growth of each nude mouse was observed, and the mice were grouped and received drugs when the tumor grew to 100 mm^3. Mice were divided into the blank group, the model group, the low-dose group, and the high-dose group, with 7 mice in each group. Meanwhile, the inhibitor MY33-3 was administered at doses of 20 mg/kg (low-dose group) and 100 mg/kg (high-dose group) once every 2 days, and the changes in tumor growth were recorded using a vernier caliper. Then, after 21 days of administration, samples were collected, and the therapeutic effect of the inhibitor MY33-3 on human Lung-LUSC cells was evaluated using indicators such as tumor volume, tumor weight, and nude mouse weight.

H520 cells = assay: CCK8 cell survival, MY-10, H520; format: cell-based, human; details: 72 hours
Method: (§2) The CCK8 method was used to detect the effect of the PTPRZ1 inhibitor MY-10 on cell proliferation. 3 human Lung-LUSC cells and one PTPRZ1 high expression cell line U251 (high expression of PTPRZ1 gene in glioma cells) were used in this experiment for detection. Each cell line was inoculated into a 96-well plate at a density of 5000 cells/well, cultured for 24 hours, and then 100 μL of MY-10 working solution was added at final concentrations of 0 μM, 1 μM, 2 μM, […], 6 μM, and […] to the test wells, while 100 μL of medium was added to the blank control well. After 72 hours of drug treatment, 20 μL of CCK8 was added in proportion, followed by incubating for 1 h. The absorbance value was measured at 450 nm, and the survival rates of MY-10 against different Lung-LUSC cells were plotted.

H1703 = assay: CCK8 cell survival, MY-10, H1703; format: cell-based, human; details: 0-8 μM, 72 hours
Method: as §2

LK-2 = assay: CCK8 cell survival, MY-10, LK-2; format: cell-based, human; details: 0-8 μM, 72 hours
Method: as §2

[6] = system: PTPRZ1 glioma cell line (U251); assay: CCK8 cell survival, MY-10, U251; format: cell-based; details: 0-8 μM, 72 hours
Method: as §2

human Lung-LUSC cells = assay: CCK8 cell growth inhibition by NAZ2329, Lung-LUSC cells; format: cell-based; details: 5-70 μM, 72 hours
Method: (§3) The CCK8 method was used to detect the inhibition rate of PTPRZ1 inhibitor NAZ2329 on cell growth. 5 strains of human Lung-LUSC cells, one strain of human normal lung epithelial cell BEAS-2B, and one strain of highly expressed PTPRZ1 cell line U251 (High expression of PTPRZ1 gene in glioma cells) were used in this experiment for detection. Each cell line was inoculated into a 96-well plate at a density of 8000 cells/well, and cultured for 18 h. Then, 100 μL of NAZ2329 solution was added to the test wells at final concentrations of 5 μM, 10 μM, 20 μM, 30 μM, 40 μM, 50 μM, 60 μM, and 70 μM, while 100 μL of medium was added to the blank control well. After 72 hours of drug treatment, 20 μL of CCK8 was added in proportion and incubated for 2 h. The absorbance value was measured at 450 nm and the inhibition rate curve was plotted.

[7] = system: human normal lung epithelial cell BEAS-2B; assay: CCK8 cell growth inhibition by NAZ2329, BEAS-2B; format: cell-based; details: 5-70 μM, 72 hours
Method: as §3

glioma cell line U251 = assay: CCK8 cell growth inhibition by NAZ2329, U251; format: cell-based; details: 5-70 μM, 72 hours
Method: as §3

FC(F)(F)Sc1ccc(CNCc2ccc(SC(F)(F)F)cc2)cc1 [MY33-3]
pIC50 [1]: > 4.80 | pIC50 [2]: 4.60 | pIC50 [3]: 4.55 | pIC50 [4]: 4.48 | inhibitory effect on tumorigenicity of H520 cells ([5]; dose of 20 mg/kg): good inhibitory effect | weight of nude mice versus model group ([5]; high-dose group 100 mg/kg): no significant difference | tumor size compared with the model group ([5]; high-dose group 100 mg/kg once every 2 days): significantly decreased | tumor volume compared with the model group ([5]; high-dose group 100 mg/kg): more significantly decreased | weight of nude mice versus model group ([5]; low-dose group 20 mg/kg): no significant difference | tumor size compared with the model group ([5]; low-dose group 20 mg/kg once every 2 days): significantly decreased | tumor volume compared with the model group ([5]; low-dose group 20 mg/kg): more significantly decreased

FC(F)(F)Sc1ccc(CCCOc2ccc(SC(F)(F)F)cc2)cc1 [MY-10]
inhibitory effect with increasing concentrations (H520 cells; H520, 0-8 μM): significant inhibitory effects | pIC50 (H520 cells; Homo sapiens, NCI-H520, H520 cells, read-out: IC50 (survival rate)): ~5.40 | inhibitory effect with increasing concentrations (H1703): significant inhibitory effects | inhibitory effect with increasing concentrations (LK-2): significant inhibitory effects | inhibitory effect with increasing concentrations [6]: significant inhibitory effects

CCOc1ccc(C(F)(F)F)cc1CSc1ccsc1C(=O)NS(=O)(=O)c1ccccc1 [NAZ2329]
growth inhibition rate on cell growth (human Lung-LUSC cells; 4 strains of Lung-LUSC cells, compared with BEAS-2B and U251): significantly higher than that of human normal lung epithelial cells BEAS-2B and glioma cell line U251 | cell growth with increasing treatment concentration (human Lung-LUSC cells; Lung-LUSC cells): inhibited | cell growth with increasing treatment concentration [7]: inhibited | cell growth with increasing treatment concentration (glioma cell line U251): inhibited
